These results are taken from patent US20240156847A1 (priority 2022, published 2024).

The subject of series [1] is PRV gE protein (PRV-HeNLH/2017 strain). The class given is cell-based, Pseudorabies virus.
The subject of another series is PRV-GFP strain. The class given is cell-based, Pseudorabies virus.
For another series, the system named is PRV-HeNLH/2017 strain. The class given is cell-based, Pseudorabies virus.

As for `O=C(O)[C@H]1O[C@@H](Oc2cc3oc(-c4ccccc4)cc(=O)c3c(O)c2O)[C@H](O)[C@@H](O)[C@@H]1O` [baicalin], the “effect on cell viability (cytotoxicity)” value in the series on PK-15 cells is listed as “no significant effect on cell viability”. For the same compound, in series [1], the “inhibition of expression of PRV gE protein” value is reported as “significantly inhibited the expression of PRV gE protein”. For the same compound, in the series on PRV-GFP strain, the “inhibition of proliferation of PRV-GFP strain (green fluorescence)” value is “inhibited the proliferation of PRV-GFP strains at the using concentrations, and the inhibitory effect was more significant at 62.5 and 125 μM”. The “inhibition of PRV proliferation (virus titer, TCID50)” value in the series with PRV-HeNLH/2017 strain was “significantly inhibited the proliferation of PRV on PK-15 cells”.
